Measurements taken from patent publication US8541455B2, “Derivatives of 2-pyridin-2-yl-pyrazol-3(2H)-one, preparation and therapeutic use thereof as HIF activators” (Sanofi, priority 2008, dated 2013).

Tests used:
HIF1-alpha = experiment: Measurement of the stabilization of HIF1-alpha in HEKEA cells (beta-galactosidase complementation, luminescence); format: cell-based, human; conditions: HEKEA_HIF1-alphaPLBL cells, 6 hours incubation under normoxia; concentration that produces 50% of the maximum response of this same compound
From the text: Furthermore, a subject of the invention is also a uniform test process for the direct measurement by beta-galactosidase complementation of the amount of HIF1-alpha protein in the nucleus of cells, preferably HEK cells, after treating the said cells with one or more test compounds, which consists in: • (a) inoculating, preferably in 384-well plates, the said cells in a suitable culture medium, preferably 1% foetal calf serum (abbreviated as FCS); • (b) adding the test compound(s) at a suitable concentration in a suitable solvent to the cells previously inoculated in the said culture medium; preferably the test compounds are diluted in 0.1% FCS; • (c) incubating the said cells thus prepared in an indicator at about 37° C., advantageously for about 6 hours; • (d) lysing the cells with a lysis buffer containing a chemiluminescent substrate for beta-galactosidase; • (e) incubating in the absence of light, before reading and measuring the luminescence, which is a function of the beta-galactosidase activity.
Many tests exist describing the indirect measurement of the activity of HIF via reporter gene systems (HRE-luciferase) or via the measurement of HIF-induced proteins (for example VEGF or EPO). Furthermore, the only tests that allow direct measurement of the amount of HIF1-alpha protein in cells are tests using antibodies, for instance Western blotting comprising phases of cell extraction (total lysates or nuclear extracts) that are consuming in terms of cells and time, thus limiting the compound screening capacity. The object was thus to develop a sensitive screening test, adaptable to 384-well plates, for directly measuring the amount of HIF1-alpha protein in the nucleus of cells. This test was established in HEK cells ([…]).
The test is a cell test based on the principle of enzyme complementation, the enzyme used herein being beta-galactosidase. HEKEA cells are HEK cells stably expressing, and restricted in their nucleus, mutant beta-galactosidase (omega fragment, also known as EA) (line sold by DiscoverX). This construct makes it possible to obtain beta-galactosidase activity only when the protein comprising the Prolabel complementation fragment has migrated into the nucleus.
The protein of interest comprising the Prolabel fragment is in this case an HIF1-alpha or HIF1-alpha mutated at the two prolines 402 and 564 replaced with alanines, is C-terminal fused via molecular biology (DiscoverX vector sold by Clontech) with the small complementation peptide fragment (Prolabel or ED, about 4 kDa). The vector coding for the chimeric protein HIF1-alpha_Prolabel is then transfected into HEKEA cells to obtain stable clones (HEKEA_HIF1-alphaPLBL).
The amount of C-terminal Prolabel-“labelled” HIF1-alpha protein obtained after treating the cells to hypoxia or compounds that are potentially HIF activators is measured by adding to the cells a lysis buffer containing a chemiluminescent substrate for beta-galactosidase.
The measurement of the beta-galactosidase activity will be proportional to the amount of Prolabel and thus of HIF1-alpha that has migrated into the nucleus of the cells.
• 1.3.1 Experiment Plan • 1) Inoculation of the cells on D0 • 2) Adherence for 24 hours under normoxia • 3) Preparation and addition of the products (Biomek 2000 and FX) on D+1 • 4) Incubation under normoxia for 6 hours • 5) Reading of the plates (by luminescence)
The cells are inoculated with Multidrop in white, opaque-bottomed 384-well plates (Greiner ref 3704), in 30 μl of culture medium (1% FCS) at 10 000 cells/well (cell plate). • 1.3.3 Treatment • Preparation of the Dilution Plate (DL Plate)
The test products are prepared at 3×10^−2 M in 100% DMSO and then diluted to 3×10^−4 M in medium containing 0.1% FCS (10 μl in 990 μl of MEM). They are then deposited by hand into column 12 of a round-bottomed 96-well plate (200 μl of each compound) known as the dilution plate (dl). […]

[1] = tested on: VEGF secretion by Hep3B cells; experiment: Measurement of the secretion of VEGF by Hep3B hepatocytes (ELISA on supernatant); format: cell-based; conditions: Homo sapiens, 18 hours incubation under normoxia, VEGF in supernatant, 50% of the maximum response of this same compound
From the text: (§1) 2. Measurement of the Secretion of VEGF and EPO by Hep3B Hepatocytes 2.1. Object
(§2) HIF is a transcription factor involved in the adaptation of cells to hypoxia. Since the genes activated by HIF are involved in the adaptive response of cells to hypoxia and of tissues to ischaemia, the object is to identify and characterize compounds that stabilize HIF1-alpha in cells in order to amplify or mimic its beneficial effect. HIF1-alpha was identified following the analysis of the EPO gene promoter, which makes this protein one of the first markers of HIF1-alpha activation. Moreover, VEGF is also identified in the literature as one of the main markers of HIF activation. It is for this reason that measurement of these two proteins was selected for characterizing compounds that are HIF activators in Hep3B cells.
(§3) The object was thus to develop a sensitive screening test, adaptable to 96-well plates, for directly measuring the amount of VEGF and EPO in the supernatant of the Hep3B cells (cells derived from a human hepatocarcinoma) in response to the potential HIF activators.
(§4) The test is an ELISA test for measuring VEGF and EPO in the supernatant of Hep3B cells treated under hypoxia or with deferoxamine as controls or with the potential HIF activators. The test was adapted to a 96-well plate, allowing greater compound screening capacity.
(§5) • 2.3.1 Experiment Plan • 1) Inoculation of the cells on D0 • 2) Adherence for 6 hours under normoxia • 3) Preparation and addition of the products (Biomek 2000 and FX) • 4) Incubation under normoxia for 18 hours • 5) EPO and VEGF assay in the supernatant on D+1 • 2.3.2 Inoculation of the Cells
(§6) The cells are subcultured into 100 μl of culture medium (10% FCS) in black, opaque-bottomed 96-well plates (reference Costar 3916) at 30 000 cells/well, with Multidrop. • 2.3.3 Treatment of the Cells
(§7) The test products are prepared at 10^−2 M in 100% DMSO and then diluted to […] in medium containing 0.1% FCS (6 μl in 194 μl of MEM). 200 μl of each compound are deposited in column 12 of a 96-well plate. Dilution ranges from […] to 3×10^−8M are prepared with Biomek 2000 (programme: range of 9 points in series). 100 μl of MEM 0.1% FCS and Deferoxamine 5×10^−3M are added as controls to column 3 and, respectively, to wells A,B,C,D and wells E,F,G,H • DL Plate Distribution in Cell Plates
(§8) The medium of the cells inoculated the day before into 96-well plates is changed for 90 μl of medium containing 0.1% FCS and 10 μl are distributed with FX 96 from the 96-well DL plates to the cell plates.
(§9) The cell plates thus treated are placed for 18 hours in an incubator at 37° C. (ambient O2, 6% CO2).
(§10) The supernatants (80 μl) of the Hep3B cells in the 96-well plates treated with the potential HIF activators are recovered with a multichannel pipette for simultaneous assay of the VEGF and the EPO by ELISA according to the supplier's instructions (Kit EPO Mesoscale (ref K15122B-2)).
(§11) The activating activity of a compound with respect to HIF is given by the concentration that produces 50% of the maximum response of this same compound in Table IV below.

[2] = tested on: EPO secretion by Hep3B cells; experiment: Measurement of the secretion of EPO by Hep3B hepatocytes (ELISA on supernatant); format: cell-based; conditions: Homo sapiens, 18 hours incubation under normoxia, EPO in supernatant, 50% of the maximum response of this same compound
From the text: as §1, §2, §3, §4, §5, §6, §7, §8, §9, §10, §11

CCN(c1ccccc1)S(=O)(=O)c1ccc(-n2[nH]c(C)c(Cc3cccc(N(C)C)c3)c2=O)nc1 [Compound 53, 6-{4-[3-(dimethylamino)benzyl]-3-methyl-5-oxo-2,5-dihydro-1H-pyrazol-1-yl}-N-ethyl-N-phenylpyridine-3-sulfonamide]
melting point: 122 °C
EC50 (HIF1-alpha): 2.6 µM
EC50 [1]: 3.2 µM
EC50 [2]: 0.9 µM

CCN(c1ccccc1)S(=O)(=O)c1ccc(-n2[nH]c(C)c(Cc3ccc(OC)cc3)c2=O)nc1 [Compound 54, N-ethyl-6-[4-(4-methoxybenzyl)-3-methyl-5-oxo-2,5-dihydro-1H-pyrazol-1-yl]-N-phenylpyridine-3-sulfonamide]
melting point: 188 °C
EC50 (HIF1-alpha): 6.4 µM
EC50 [1]: 0.3 µM
EC50 [2]: 0.45 µM

CCCc1[nH]n(-c2ccc(S(=O)(=O)N(CC)c3ccccc3)cn2)c(=O)c1Cc1ccccc1 [Compound 68, 6-(4-benzyl-5-oxo-3-propyl-2,5-dihydro-1H-pyrazol-1-yl)-N-ethyl-N-phenylpyridine-3-sulfonamide]
melting point: 180 °C
EC50 (HIF1-alpha): 1.5 µM
EC50 [1]: 0.5 µM
EC50 [2]: 0.4 µM

CCN(c1ccccc1)S(=O)(=O)c1ccc(-n2[nH]c(C)c(C(C)(C)c3ccccc3)c2=O)nc1 [Compound 77, N-ethyl-6-[3-methyl-4-(1-methyl-1-phenylethyl)-5-oxo-2,5-dihydro-1H-pyrazol-1-yl]-N-phenylpyridine-3-sulfonamide]
melting point: 122 °C
EC50 (HIF1-alpha): 4.8 µM
EC50 [1]: 1.3 µM
EC50 [2]: 1.4 µM

CCN(c1ccccc1)S(=O)(=O)c1ccc(-n2[nH]c(C)c(C3(c4ccccc4)CC3)c2=O)nc1 [Compound 80, N-ethyl-6-[3-methyl-5-oxo-4-(1-phenylcyclopropyl)-2,5-dihydro-1H-pyrazol-1-yl]-N-phenylpyridine-3-sulfonamide]
melting point: 146 °C
EC50 (HIF1-alpha): 3.3 µM
EC50 [1]: 0.9 µM
EC50 [2]: 0.4 µM

CCN(c1ccccc1)S(=O)(=O)c1ccc(-n2[nH]c(C)c(Cc3ncccc3OC)c2=O)nc1 [Compound 81]
melting point: 130 °C
EC50 (HIF1-alpha): 7.5 µM
EC50 [1]: 1.9 µM
EC50 [2]: 1.2 µM

CCN(c1ccccc1)S(=O)(=O)c1ccc(-n2[nH]c(COC)c(Cc3ccccc3)c2=O)nc1 [Compound 82]
melting point: 158 °C
EC50 (HIF1-alpha): 1.5 µM
EC50 [1]: 1.2 µM
EC50 [2]: 1 µM

CCN(c1ccccc1)S(=O)(=O)c1ccc(-n2[nH]c(C(F)(F)F)c(Cc3ccccc3)c2=O)nc1 [Compound 83, 6-(4-benzyl-5-oxo-3-trifluoromethyl-2,5-dihydro-1H-pyrazol-1-yl)-N-ethyl-N-phenylpyridine-3-sulfonamide]
melting point: 186 °C
EC50 (HIF1-alpha): 3.3 µM
EC50 [1]: 1.3 µM
EC50 [2]: 1.4 µM

CCN(c1ccccc1)S(=O)(=O)c1ccc(-n2[nH]c(C)c(CCc3ccccn3)c2=O)nc1 [Compound 85]
melting point: 188 °C
EC50 (HIF1-alpha): 1.8 µM
EC50 [1]: 2.5 µM
EC50 [2]: 2.5 µM

CCN(c1ccccc1)S(=O)(=O)c1ccc(-n2[nH]c(CC(C)C)c(Cc3ccccc3)c2=O)nc1 [Compound 88]
melting point: 138 °C
EC50 (HIF1-alpha): 0.88 µM
EC50 [1]: 0.4 µM
EC50 [2]: 0.3 µM

CCN(c1ccccc1)S(=O)(=O)c1ccc(-n2[nH]c(C)c(CCCc3ccccc3)c2=O)nc1 [Compound 92]
melting point: 158 °C
EC50 (HIF1-alpha): 0.86 µM
EC50 [1]: 0.5 µM
EC50 [2]: 0.5 µM
